# Measurements: patent US20100256107A1, “PREPARATION COMPOSITION” (Dainippon Sumitomo Pharma Co., Ltd., priority 2007, published 2010)
# What was measured:
# [1] = Stability in an aqueous solution of a formulation containing sodium bicarbonate (HPLC); type: physicochemical; conditions: for reduction of amount of Compound A: 6 hours at 25° C.
# Method: Multiple vials were prepared and amounts of Compound A and sodium bicarbonate indicated in Table 5 were weighed and filled in each vial. Thereto was added physiological saline (100 ml). Amounts of Compound A and its degradation, Compounds B and C were measured just after dissolution and after preservation for 6 hours at 25° C.
# • column: SUMIPAX ODS-A212 (silica gel binding with octadecyl group, • particle size: 5 μm; 6.0 mmφ×15 cm) • detector: ultraviolet spectrophotometer (wavelength: 220 nm) • column temperature: constant temperature around at 25° C. • mobile phase: A solution; 5 mmol/L phosphate buffer (pH7) and acetonitrile (300:23), B solution: acetonitrile • flow rate: 1.0 mL/min. • gradient condition: as shown in Table 6
# The numbers described in columns of “just after dissolution” and “after preservation for 6 hours at 25° C.” on Table 8 show area % per total peaks which appear until 55 minutes under the above HPLC conditions.
# [2] = Control of coloration in an aqueous solution formulation containing sodium bicarbonate (absorbance 380 nm); type: physicochemical; conditions: for change in absorbance, just after dissolution / change in absorbance, preservation time 1 hr / change in absorbance, preservation time 2 hr / change in absorbance, preservation time 3 hr / change in absorbance, preservation time 4 hr / change in absorbance, preservation time 5 hr / change in absorbance, preservation time 6 hr: 25° C., 380 nm
# Method: Multiple vials were prepared, and Compound A, imipenem and sodium bicarbonate in amounts indicated in Table 11 were weighed, respectively and each mixture was put in each vial. A physiological saline (100 ml) was added to each vial to be dissolved. In addition, to a vial containing Tienam® for infusion (0.5 g potency/vial) was added a physiological saline (100 ml). Coloration (change of color) just after dissolution and when the solution was preserved at one hour intervals for 6 hours at 25° C. were measured by absorbency.
# • Conditions of measurement by spectrophotometer; • cell: quartz 12.5 mm×12.5 mm×45 mm, capacity 3.5 ml • wavelength: 380 nm • measurement temperature: 25° C. • instrument: UV-2200A (Shimadzu)
# The numbers described in columns of “just after dissolution” and each “preservation time” on Table 12 show values of change in absorbance just after dissolution when measured under the above conditions.
# [3] = Comp. A 0.5 g/vial + sodium bicarbonate 0.0 mg/vial in physiological saline 100 ml
# [4] = Comp. A 0.5 g/vial + sodium bicarbonate 1.0 mg/vial in physiological saline 100 ml
# [5] = Comp. A 0.5 g/vial + sodium bicarbonate 2.5 mg/vial in physiological saline 100 ml
# [6] = Comp. A 0.5 g/vial + sodium bicarbonate 5.0 mg/vial in physiological saline 100 ml
# [7] = Comp. A 0.5 g/vial + sodium bicarbonate 10 mg/vial in physiological saline 100 ml
# [8] = Comp. A 0.5 g/vial + sodium bicarbonate 15 mg/vial in physiological saline 100 ml
# [9] = Comp. A 0.5 g/vial + sodium bicarbonate 20 mg/vial in physiological saline 100 ml
# [10] = Comp. A 0.5 g/vial + sodium bicarbonate 50 mg/vial in physiological saline 100 ml
# [11] = Comp. A 0.5 g/vial + sodium bicarbonate 100 mg/vial in physiological saline 100 ml
# [12] = 0.5 g/vial + sodium bicarbonate 0.0 mg/vial in physiological saline 100 ml
# [13] = 0.5 g/vial + sodium bicarbonate 1.0 mg/vial in physiological saline 100 ml
# [14] = 0.5 g/vial + sodium bicarbonate 2.5 mg/vial in physiological saline 100 ml
# [15] = 0.5 g/vial + sodium bicarbonate 5.0 mg/vial in physiological saline 100 ml
# [16] = 0.5 g/vial + sodium bicarbonate 10 mg/vial in physiological saline 100 ml
# [17] = 0.5 g/vial + sodium bicarbonate 20 mg/vial in physiological saline 100 ml
# [18] = 0.5 g/vial + sodium bicarbonate 50 mg/vial in physiological saline 100 ml
smiles,measurement,setting,value
"C[C@H]1C=C(c2csc(SC3=C(C(=O)O)N4C(=O)[C@H]([C@@H](C)O)[C@H]4[C@H]3C)n2)CN1 [Compound A, (4R,5S,6S)-6-[(1R)-1-hydroxyethyl]-4-methyl-3-({4-[(5S)-5-methyl-2,5-dihydro-1H-pyrrol-3-yl]-1,3-thiazol-2-yl}sulfanyl)-7-oxo-1-azabicyclo[3.2.0]hept-2-ene-2-carboxylic acid]",Comp. A after preservation for 6 hrs. at 25° C.,[1]; [3],95.8 area %
same,Comp. A just after dissolution,[1]; [3],98.8 area %
same,Comp. B after preservation for 6 hrs. at 25° C.,[1]; [3],3.0 area %
same,Comp. B just after dissolution,[1]; [3],0.7 area %
same,Comp. C after preservation for 6 hrs. at 25° C.,[1]; [3],0.5 area %
same,Comp. C just after dissolution,[1]; [3],0.0 area %
same,Comp. A after preservation for 6 hrs. at 25° C.,[1]; [4],96.6 area %
same,Comp. A just after dissolution,[1]; [4],98.9 area %
same,Comp. B after preservation for 6 hrs. at 25° C.,[1]; [4],2.7 area %
same,Comp. B just after dissolution,[1]; [4],0.7 area %
same,Comp. C after preservation for 6 hrs. at 25° C.,[1]; [4],0.2 area %
same,Comp. C just after dissolution,[1]; [4],0.0 area %
same,Comp. A after preservation for 6 hrs. at 25° C.,[1]; [5],96.6 area %
same,Comp. A just after dissolution,[1]; [5],98.9 area %
same,Comp. B after preservation for 6 hrs. at 25° C.,[1]; [5],2.8 area %
same,Comp. B just after dissolution,[1]; [5],0.7 area %
same,Comp. C after preservation for 6 hrs. at 25° C.,[1]; [5],≤ 0.1 area %
same,Comp. C just after dissolution,[1]; [5],0.0 area %
same,Comp. C after preservation for 6 hrs. at 25° C.,"[1]; Comp. A 0.5 g/vial + sodium bicarbonate 2.5 mg/vial in physiological saline 100 ml, listed as Comp. A",0.0 area %
same,Comp. A after preservation for 6 hrs. at 25° C.,[1]; [6],96.3 area %
same,Comp. A just after dissolution,[1]; [6],98.9 area %
same,Comp. B after preservation for 6 hrs. at 25° C.,[1]; [6],3.0 area %
same,Comp. B just after dissolution,[1]; [6],0.6 area %
same,Comp. C after preservation for 6 hrs. at 25° C.,[1]; [6],0.0 area %
same,Comp. C just after dissolution,[1]; [6],0.0 area %
same,Comp. A after preservation for 6 hrs. at 25° C.,[1]; [7],95.9 area %
same,Comp. A just after dissolution,[1]; [7],98.9 area %
same,Comp. B after preservation for 6 hrs. at 25° C.,[1]; [7],3.5 area %
same,Comp. B just after dissolution,[1]; [7],0.7 area %
same,Comp. C after preservation for 6 hrs. at 25° C.,[1]; [7],0.0 area %
same,Comp. C just after dissolution,[1]; [7],0.0 area %
same,Comp. A after preservation for 6 hrs. at 25° C.,[1]; [8],95.4 area %
same,Comp. A just after dissolution,[1]; [8],98.9 area %
same,Comp. B after preservation for 6 hrs. at 25° C.,[1]; [8],3.9 area %
same,Comp. B just after dissolution,[1]; [8],0.6 area %
same,Comp. C after preservation for 6 hrs. at 25° C.,[1]; [8],0.0 area %
same,Comp. C just after dissolution,[1]; [8],0.0 area %
same,Comp. A after preservation for 6 hrs. at 25° C.,[1]; [9],95.2 area %
same,Comp. A just after dissolution,[1]; [9],98.8 area %
same,Comp. B after preservation for 6 hrs. at 25° C.,[1]; [9],4.1 area %
same,Comp. B just after dissolution,[1]; [9],0.6 area %
same,Comp. C after preservation for 6 hrs. at 25° C.,[1]; [9],0.0 area %
same,Comp. C just after dissolution,[1]; [9],0.0 area %
same,Comp. A after preservation for 6 hrs. at 25° C.,[1]; [10],93.5 area %
same,Comp. A just after dissolution,[1]; [10],98.6 area %
same,Comp. B after preservation for 6 hrs. at 25° C.,[1]; [10],5.5 area %
same,Comp. B just after dissolution,[1]; [10],0.7 area %
same,Comp. C after preservation for 6 hrs. at 25° C.,[1]; [10],0.0 area %
same,Comp. C just after dissolution,[1]; [10],0.0 area %
same,Comp. A after preservation for 6 hrs. at 25° C.,[1]; [11],92.4 area %
same,Comp. A just after dissolution,[1]; [11],98.9 area %
same,Comp. B after preservation for 6 hrs. at 25° C.,[1]; [11],6.6 area %
same,Comp. B just after dissolution,[1]; [11],0.6 area %
same,Comp. C after preservation for 6 hrs. at 25° C.,[1]; [11],0.0 area %
same,Comp. C just after dissolution,[1]; [11],0.0 area %
same,reduction of amount of Compound A,[1]; sodium bicarbonate increased to 20 mg from 15 mg per Compound A 500 mg,0.2%
same,reduction of amount of Compound A,[1]; sodium bicarbonate increased to 50 mg from 20 mg per Compound A 500 mg,1.7%
same,"change in absorbance, just after dissolution",[2]; [12],0.00 Abs
same,"change in absorbance, preservation time 1 hr",[2]; [12],0.01 Abs
same,"change in absorbance, preservation time 2 hr",[2]; [12],0.03 Abs
same,"change in absorbance, preservation time 3 hr",[2]; [12],0.05 Abs
same,"change in absorbance, preservation time 4 hr",[2]; [12],0.07 Abs
same,"change in absorbance, preservation time 5 hr",[2]; [12],0.11 Abs
same,"change in absorbance, preservation time 6 hr",[2]; [12],0.13 Abs
same,"change in absorbance, just after dissolution",[2]; [13],0.00 Abs
same,"change in absorbance, preservation time 1 hr",[2]; [13],0.00 Abs
same,"change in absorbance, preservation time 2 hr",[2]; [13],0.01 Abs
same,"change in absorbance, preservation time 3 hr",[2]; [13],0.02 Abs
same,"change in absorbance, preservation time 4 hr",[2]; [13],0.04 Abs
same,"change in absorbance, preservation time 5 hr",[2]; [13],0.06 Abs
same,"change in absorbance, preservation time 6 hr",[2]; [13],0.08 Abs
same,"change in absorbance, just after dissolution",[2]; [14],0.00 Abs
same,"change in absorbance, preservation time 1 hr",[2]; [14],0.00 Abs
same,"change in absorbance, preservation time 2 hr",[2]; [14],0.00 Abs
same,"change in absorbance, preservation time 3 hr",[2]; [14],0.00 Abs
same,"change in absorbance, preservation time 4 hr",[2]; [14],0.00 Abs
same,"change in absorbance, preservation time 5 hr",[2]; [14],0.01 Abs
same,"change in absorbance, preservation time 6 hr",[2]; [14],0.01 Abs
same,"change in absorbance, just after dissolution",[2]; [15],0.00 Abs
same,"change in absorbance, preservation time 1 hr",[2]; [15],0.00 Abs
same,"change in absorbance, preservation time 2 hr",[2]; [15],0.00 Abs
same,"change in absorbance, preservation time 3 hr",[2]; [15],0.00 Abs
same,"change in absorbance, preservation time 4 hr",[2]; [15],0.00 Abs
same,"change in absorbance, preservation time 5 hr",[2]; [15],0.00 Abs
same,"change in absorbance, preservation time 6 hr",[2]; [15],0.00 Abs
same,"change in absorbance, just after dissolution",[2]; [16],0.00 Abs
same,"change in absorbance, preservation time 1 hr",[2]; [16],0.00 Abs
same,"change in absorbance, preservation time 2 hr",[2]; [16],0.00 Abs
same,"change in absorbance, preservation time 3 hr",[2]; [16],0.00 Abs
same,"change in absorbance, preservation time 4 hr",[2]; [16],0.00 Abs
same,"change in absorbance, preservation time 5 hr",[2]; [16],0.00 Abs
same,"change in absorbance, preservation time 6 hr",[2]; [16],0.00 Abs
same,"change in absorbance, just after dissolution",[2]; [17],0.00 Abs
same,"change in absorbance, preservation time 1 hr",[2]; [17],0.00 Abs
same,"change in absorbance, preservation time 2 hr",[2]; [17],0.00 Abs
same,"change in absorbance, preservation time 3 hr",[2]; [17],0.00 Abs
same,"change in absorbance, preservation time 4 hr",[2]; [17],0.00 Abs
same,"change in absorbance, preservation time 5 hr",[2]; [17],0.00 Abs
same,"change in absorbance, preservation time 6 hr",[2]; [17],0.00 Abs
same,"change in absorbance, just after dissolution",[2]; [18],0.00 Abs
same,"change in absorbance, preservation time 1 hr",[2]; [18],0.00 Abs
same,"change in absorbance, preservation time 2 hr",[2]; [18],0.00 Abs
same,"change in absorbance, preservation time 3 hr",[2]; [18],0.00 Abs
same,"change in absorbance, preservation time 4 hr",[2]; [18],0.00 Abs
same,"change in absorbance, preservation time 5 hr",[2]; [18],0.00 Abs
same,"change in absorbance, preservation time 6 hr",[2]; [18],0.00 Abs
same,suppression of coloration of the solution,[2]; at least 2.5 mg (0.005 part by weight) of sodium bicarbonate per 500 mg,observed
same,coloration by the visual inspection compared with a solution just after dissolution,"[2]; sodium bicarbonate 2.5 mg per 500 mg, physiological saline, 6 hours at 25° C.",coloration was not observed by the visual inspection
